Reference: PubChem BioAssay (NCI)
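Grown in 96-well plates, cells were treated for 48 hours with each compound at five concentrations. Insufficient inhibition: endpoint recorded as highest concentration tested. TGI: total growth inhibition.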

Experiments:
Experiment in all cases: inhibition of tumour cell growth, NCI panel, 48 h
IGROV1 ovarian = tested on: IGROV1 ovarian
SNB-75 CNS = tested on: SNB-75 CNS
NCI-H226 lung = tested on: NCI-H226 lung
RXF 393 renal = tested on: RXF 393 renal
MCF7 breast = tested on: MCF7 breast
NCI-H460 lung = tested on: NCI-H460 lung
MDA-MB-231 breast = tested on: MDA-MB-231 breast
RPMI-8226 leukemia = tested on: RPMI-8226 leukemia
MALME-3M melanoma = tested on: MALME-3M melanoma
COLO 205 colon = tested on: COLO 205 colon

For `COc1cccc(C2c3cc4c(cc3OC(O)C2C)OCO4)c1OC` (stereo not given), the TGI (IGROV1 ovarian) was 36.4 µM, the TGI (SNB-75 CNS) was 32.4 µM and the TGI (NCI-H226 lung) was 24.8 µM. The TGI (RXF 393 renal) was 23.5 µM, the TGI (MCF7 breast) was > 100 µM and the TGI (NCI-H460 lung) was 25.1 µM. For the same compound, the TGI (MDA-MB-231 breast) was 42.4 µM, the TGI (RPMI-8226 leukemia) was 14.6 µM and the TGI (MALME-3M melanoma) was 32.9 µM. For the same compound, the TGI (COLO 205 colon) was 19.7 µM.
